How the values were obtained:
[1] = Paclitaxel plasma pharmacokinetics, cycle 1 day 1; format: in vivo, human
[2] = paclitaxel 100 mg/m^2; patients receiving PIs (nelfinavir, indinavir, other multiple protease inhibitors); Kaposi Sarcoma and HIV; cited from earlier work
[3] = Adverse events, NCI CTCAE version 4.0, worst grade in any cycle; format: in vivo, human; conditions: 2 patients, first vorinostat dose level (400 mg orally days 1-5 of each cycle)
[4] = Ritonavir cohort, cycle 1, paclitaxel 175 mg/m^2 IV with carboplatin

differences in Cmax or AUCinf between the 2 cohorts ([1]; 6 patients, ritonavir vs non-ritonavir)	Cl [1, 4]	Time > C 0.5 µM [1, 4]	duration spent at a paclitaxel concentration >0.05 µM ([1]; non-ritonavir cohort)	duration spent at a paclitaxel concentration >0.05 µM ([1]; ritonavir cohort)	Compound	pharmacokinetic interaction with ritonavir ([1]; ritonavir at a boosting dose for ART in combination with paclitaxel)	Paclitaxel exposure as measured by AUC [2]	toxicity of PCb combination with vorinostat [3]
no significant differences	4.1 L/hr/m^2	22.7 h	23.8 h	22.7 h	CC(=O)O[C@H]1C(=O)[C@@]2(C)[C@H]([C@H](OC(=O)c3ccccc3)[C@]3(O)C[C@H](OC(=O)[C@H](O)[C@@H](NC(=O)c4ccccc4)c4ccccc4)C(C)=C1C3(C)C)[C@]1(OC(C)=O)CO[C@@H]1C[C@@H]2O [Paclitaxel]	no evidence for pharmacokinetic interaction	5.5 ± 2.2 µM·h	–
–	–	–	–	–	O=C(CCCCCCC(=O)Nc1ccccc1)NO [vorinostat]	–	–	without prohibitive toxicity

From PMC9355812 (The Oncologist, 2022)
